ChEMBL document CHEMBL1140251, “Rhodanine derivatives as inhibitors of JSP-1” (Bioorg Med Chem Lett, 2005)

Legend:
[1] = target: Dual specificity protein phosphatase 3 (Homo sapiens, UniProt P51452); assay: In vitro inhibitory concentration against VH1-related (VHR) phosphatase
[2] = target: T1, Dual specificity protein phosphatase 22 (Homo sapiens, UniProt Q9NRW4); assay: Inhibition of JNK-stimulating phosphatase-1 (JSP-1)
T1 sequence (Q9NRW4 whole entry): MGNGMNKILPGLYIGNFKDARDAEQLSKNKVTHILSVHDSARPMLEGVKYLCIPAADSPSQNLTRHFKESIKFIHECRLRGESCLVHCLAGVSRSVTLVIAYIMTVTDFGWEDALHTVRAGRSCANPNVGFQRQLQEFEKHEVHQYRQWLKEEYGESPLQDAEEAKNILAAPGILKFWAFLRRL

Dual specificity protein phosphatase 3, sequence (P51452 whole entry): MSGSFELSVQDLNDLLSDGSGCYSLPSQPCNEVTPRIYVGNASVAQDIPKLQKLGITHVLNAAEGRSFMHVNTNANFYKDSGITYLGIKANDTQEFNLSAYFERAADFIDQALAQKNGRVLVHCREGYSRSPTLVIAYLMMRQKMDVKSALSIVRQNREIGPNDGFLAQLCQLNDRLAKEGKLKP

SMILES | IC50 [1] | IC50 [2]
Cc1cc(C(=O)O)ccc1N1C(=O)/C(=C/c2ccccc2)SC1=S | > 200 µM | 66 µM
O=C(O)c1ccc(N2C(=O)/C(=C/c3ccc(F)cc3)OC2=S)cc1 | – | > 200 µM
COc1ccc(/C=C2\SC(=S)N(c3cccc(C(=O)O)c3)C2=O)cc1 | > 200 µM | 26 µM
O=C(O)c1ccc(N2C(=O)/C(=C/c3ccc(F)cc3)NC2=S)cc1 | – | > 200 µM
O=C(O)c1ccc(N2C(=O)S/C(=C\c3ccc(F)cc3)C2=O)cc1 | – | > 200 µM
O=C(O)c1ccccc1N1C(=O)/C(=C/c2ccccc2)SC1=S | > 200 µM | > 200 µM
O=C(O)c1cc(C(=O)O)cc(N2C(=O)/C(=C/c3ccccc3)SC2=S)c1 | > 200 µM | 103 µM
O=C(O)c1ccc(/C=C2\SC(=S)N(c3cccc(C(=O)O)c3)C2=O)cc1 | > 200 µM | > 200 µM
O=C(O)c1cccc(N2C(=O)/C(=C/c3ccc(O)cc3)SC2=S)c1 | > 200 µM | 157 µM
CN1C(=S)N(c2ccc(C(=O)O)cc2)C(=O)/C1=C/c1ccc(F)cc1 | – | > 200 µM
CC/C=C1\SC(=S)N(c2cccc(C(=O)O)c2)C1=O | > 200 µM | 59 µM
O=C(O)Cc1ccc(N2C(=O)/C(=C/c3ccccc3)SC2=S)cc1 | 100 µM | 20 µM
O=C1/C(=C/c2ccccc2)SC(=S)N1c1ccccc1 | – | > 200 µM
COC(=O)c1ccc(N2C(=O)/C(=C/c3ccccc3)SC2=S)cc1 | – | > 200 µM
O=C(O)c1ccc(CN2C(=O)/C(=C/c3ccccc3)SC2=S)cc1 | > 200 µM | 60 µM

Now from value to molecule:

IC50 [1] | IC50 [2] | SMILES
> 200 µM | 10 µM | O=C1/C(=C/c2ccccc2)SC(=S)N1c1ccc(CP(=O)(O)O)cc1
> 200 µM | 20 µM | O=C(O)Cc1cccc(N2C(=O)/C(=C/c3ccccc3)SC2=S)c1
> 200 µM | 11 µM | O=C1/C(=C/c2ccccc2)SC(=S)N1c1ccc(S(=O)(=O)O)cc1
123 µM | 16 µM | Cc1ccc(/C=C2\SC(=S)N(c3cccc(C(=O)O)c3)C2=O)cc1
45 µM | 13 µM | O=C(O)c1ccc(N2C(=O)/C(=C/c3ccccc3)SC2=S)cc1O
> 200 µM | 18 µM | O=C(O)c1ccc(N2C(=O)/C(=C/c3ccccc3)SC2=S)cc1
– | 4.2 µM | O=C(O)c1ccc(N2C(=O)/C(=C/c3ccc(F)cc3)SC2=S)cc1
130 µM | 13 µM | O=C(O)c1cc(N2C(=O)/C(=C/c3ccccc3)SC2=S)ccc1O
> 200 µM | 7.3 µM | O=C(O)c1cccc(N2C(=O)/C(=C/C3CCCCC3)SC2=S)c1
> 50 µM | 1.3 µM | O=C(O)c1cccc(N2C(=O)/C(=C/c3ccc(F)cc3)SC2=S)c1
> 50 µM | 2.6 µM | O=C(O)c1cccc(N2C(=O)/C(=C/c3ccc([N+](=O)[O-])cc3)SC2=S)c1
> 100 µM | 6.6 µM | O=C(O)c1cccc(N2C(=O)/C(=C/c3ccccc3)SC2=S)c1 (stereo in doubt; 5m)
> 100 µM | 7 µM | O=C(O)c1cccc(N2C(=O)/C(=C/c3ccccc3)SC2=S)c1 (stereo in doubt; 5t)
